For this test, the target named is T1, human CXCR4 receptor (Homo sapiens, UniProt P61073).
T1 construct: expressed in transfected cells
The test can be described thus: Measurement of intracellular Ca+2 responses (FLIPR), antagonism of the SDF-1α response. It is filed as cell-based. Particulars: for IC50: HEK-Gqi5 cells stably expressing human CXCR4, Fluo-4 FLIPR, antagonism of SDF-1α 1.9 nM (EC65); for CXCR4 (% Inh): percent antagonism of SDF-1α 1.9 nM (EC65) response, HEK-Gqi5 human CXCR4 cells, value in brackets. An outline of the steps:
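HEK-Gqi5 cells stably expressing CXCR4, Fluo-4-loaded (2 uM, 40 min, 37 °C), read on FLIPR. Compound (2.44-40,000 nM) added first for agonism, then SDF-1α at 1.9 nM final (EC65); IC50 and percent antagonism from second-addition calcium signal.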

T1 sequence (P61073 whole entry): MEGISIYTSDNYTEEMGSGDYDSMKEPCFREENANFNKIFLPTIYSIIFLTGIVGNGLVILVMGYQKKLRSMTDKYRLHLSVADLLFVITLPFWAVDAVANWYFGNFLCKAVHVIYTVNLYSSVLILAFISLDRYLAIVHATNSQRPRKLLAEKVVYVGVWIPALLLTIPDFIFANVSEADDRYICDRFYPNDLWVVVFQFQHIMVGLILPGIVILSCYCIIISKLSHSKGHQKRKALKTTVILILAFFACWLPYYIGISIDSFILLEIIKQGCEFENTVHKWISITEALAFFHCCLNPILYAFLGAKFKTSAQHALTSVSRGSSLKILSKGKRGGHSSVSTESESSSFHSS

For orientation: IC50 means the concentration that inhibits the measured activity by half. Low values mean higher potency, high ones lower potency. On to `COc1cc2nc(NCc3ncco3)nc(NC3CCN(Cc4c(OCCN(C)C)cccc4N(C)C)CC3)c2cc1OC` [Compound 204, N˜4˜-(1-{2-(Dimethylamino)-6-[2-(dimethylamino)ethoxy]benzyl}piperidin-4-yl)-6,7-dimethoxy-N2(1,3-oxazol-2-ylmethyl)quinazoline-2,4-diamine], for which the “CXCR4 (% Inh)” value turned out to be 92%. Besides, half-maximal inhibition (values in nM) (IC50) was put at 47 nM.

In the case of `CCN(CC)CCNc1nc(NC2CCN(Cc3c(OC)cccc3N(C)C)CC2)c2cc(OC)c(OC)cc2n1` [Compound 41, N2-(2-(Diethylamino)ethyl)-N4-(1-(2-(dimethylamino)-6-methoxybenzyl)piperidin-4-yl)-6,7-dimethoxyquinazoline-2,4-diamine], the “CXCR4 (% Inh)” value came to 100%. This compound displayed an IC50 (values in nM) of 360 nM.

`COc1cccc(N(C)C)c1CN1CCC(Nc2nc(N3CCN(C)CC3)nc3ccccc23)CC1` [Compound 218, N-(1-(2-(Dimethylamino)-6-methoxybenzyl)piperidin-4-yl)-2-(4-methyl-piperazin-1-yl)quinazolin-4-amine]: the “CXCR4 (% Inh)” value was 84%. The same compound registered an IC50 (values given in μM) of 1200 nM.

Turning to `COc1cccc(N(C)C)c1CN1CCC(Nc2nc(NC[C@H]3CCNC3)nc3ccccc23)CC1` [Compound 111, (S)—N-4-(1-(2-(Dimethylamino)-6-methoxybenzyl)piperidin-4-yl)-N2-(pyrrolidin-3-ylmethyl)quinazoline-2,4-diamine], the “CXCR4 (% Inh)” value is recorded as 98%. Also, the IC50 (unit of the source corrected, heading: CXCR4 IC50, values given in μM) stood at 224 nM.

With `COc1cc2nc(N3CCCCCC3)nc(NC3CCN(Cc4c(OC)cccc4N(C)C)CC3)c2cc1OC` [Compound 52, 2-(Azepan-1-yl)-N-(1-(2-(dimethylamino)-6-methoxybenzyl)piperidin-4-yl)-6,7-dimethoxyquinazolin-4-amine], the “CXCR4 (% Inh)” value stood at 90%. Half-maximal inhibition (values in nM) (IC50) was put at 730 nM.

Regarding `COc1cccc(N(C)C)c1CN1CCC(Nc2nc(NCCNC(C)=O)nc3ccccc23)CC1` [Compound 118, N-(2-(4-(1-(2-(Dimethylamino)-6-methoxybenzyl)piperidin-4-ylamino)quinazolin-2-ylamino)ethyl)acetamide], the “CXCR4 (% Inh)” value was found to be 97%. Where the note is “values in nM”, inhibition was half-maximal at 762 nM (IC50).

With `COc1cccc(N(C)C)c1CN1CCC(Nc2nc(NCC[C@H]3CCCN3C(=O)OC(C)(C)C)nc3ccccc23)CC1` [Compound 116, (R)-tert-Butyl 2-(2-(4-(1-(2-(Dimethylamino)-6-methoxybenzyl)piperidin-4-ylamino)quinazolin-2-ylamino)ethyl)pyrrolidine-1-carboxylate], the “CXCR4 (% Inh)” value stood at 83%. For the same compound, for the setting “values given in μM”, inhibition was half-maximal at 2200 nM (IC50).

Turning to `COc1cc2nc(NCCO)nc(NC3CCN(Cc4c(OCCN(C)C)cccc4N(C)C)CC3)c2cc1OC` [Compound 208, 2-({4-[(1-{2-(Dimethylamino)-6-[2-(dimethylamino)ethoxy]benzyl}piperidin-4-yl)amino]-6,7-dimethoxyquinazolin-2-yl}amino)ethanol], the “CXCR4 (% Inh)” value came out at 98%. Half-maximal inhibition (values in nM) (IC50) required 169 nM.
